Results from US20150057253A1, “ALKYL DERIVATIVES AS SPHINGOSINE-1 PHOSPHATE RECEPTORS MODULATORS” (Allergan, Inc., priority 2013, published 2015).
pEC50: −log10 of the molar value.

biological target: T1, human S1P1 receptor (Homo sapiens, UniProt P21453); experiment: GTP γ35S binding assay for S1P1 activity; type: biochemical; conditions: membranes of cells stably expressing the S1P1 receptor, test compounds 0.08 to 5,000 nM
T1 construct: expressed in transfected cells; membrane preparation
Protocol: Compounds were synthesized and tested for S1P1 activity using the GTP γ^35S binding assay. These compounds may be assessed for their ability to activate or block activation of the human S1P1 receptor in cells stably expressing the S1P1 receptor.
GTP γ^35S binding was measured in the medium containing (mM) HEPES 25, pH 7.4, MgCl2 10, NaCl 100, dithiothreitol 0.5, digitonin 0.003%, 0.2 nM GTP γ^35S, and 5 μg membrane protein in a volume of 150 μl. Test compounds were included in the concentration range from 0.08 to 5,000 nM unless indicated otherwise. Membranes were incubated with 100 μM 5′-adenylylimidodiphosphate for 30 min, and subsequently with 10 μM GDP for 10 min on ice. Drug solutions and membrane were mixed, and then reactions were initiated by adding GTP γ^35S and continued for 30 min at 25° C. Reaction mixtures were filtered over Whatman GF/B filters under vacuum, and washed three times with 3 mL of ice-cold buffer (HEPES 25, pH7.4, MgCl2 10 and NaCl 100). Filters were dried and mixed with scintillant, and counted for ^35S activity using a β-counter. Agonist-induced GTP γ^35S binding was obtained by subtracting that in the absence of agonist. Binding data were analyzed using a non-linear regression method. In case of antagonist assay, the reaction mixture contained 10 nM […] in the presence of test antagonist at concentrations ranging from 0.08 to 5000 nM.

T1 sequence (P21453 whole entry): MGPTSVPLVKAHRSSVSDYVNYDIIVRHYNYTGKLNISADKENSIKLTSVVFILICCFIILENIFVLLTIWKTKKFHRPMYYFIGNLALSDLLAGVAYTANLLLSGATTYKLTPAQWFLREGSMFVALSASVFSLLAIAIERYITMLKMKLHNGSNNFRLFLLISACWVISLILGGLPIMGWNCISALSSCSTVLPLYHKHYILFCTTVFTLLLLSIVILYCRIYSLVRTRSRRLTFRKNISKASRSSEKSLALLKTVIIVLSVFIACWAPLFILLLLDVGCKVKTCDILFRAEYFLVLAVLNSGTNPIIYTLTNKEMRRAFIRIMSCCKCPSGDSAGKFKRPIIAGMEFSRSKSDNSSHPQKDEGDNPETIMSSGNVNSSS

| SMILES | pEC50 |
| --- | --- |
| Cc1ccc(CC(CCCCc2ccc(CNCCC(=O)O)cc2)c2cc(F)cc(F)c2)cc1C (stereo not drawn) [3-({4-[5-(3,5-Difluorophenyl)-6-(3,4)-dimethylphenyl)hexyl]benzyl}amino)propanoic acid] | 8.17 |
| Cc1ccc(CC(CCCCc2ccc(CNCCCP(=O)(O)O)cc2)c2cccc(Cl)c2)cc1C (stereo not drawn) [[3-({4-[5-(3-Chlorophenyl)-6-(3,4-dimethylphenyl)hexyl]benzyl}amino)propyl]phosphonic acid] | 8.43 |
| Cc1ccc(CC(CCCc2ccc(CNCCC(=O)O)cc2)c2cccc(Cl)c2)cc1C (stereo not drawn) [3-({4-[4-(3-Chlorophenyl)-5-(3,4-dimethylphenyl)pentyl]benzyl}amino)propanoic acid] | 6.85 |
| Cc1ccc(CC(CCCCc2ccc(CNCCC(=O)O)cc2)c2cccc(Cl)c2)cc1C (stereo not drawn) [3-({4-[5-(3-Chlorophenyl)-6-(3,4-dimethylphenyl)hexyl]benzyl}amino)propanoic acid] | 7.70 |
| Cc1ccc(CC(CCCc2ccc(CNCCCP(=O)(O)O)cc2)c2cccc(Cl)c2)cc1C (stereo not drawn) [[3-({4-[4-(3-Chlorophenyl)-5-(3,4-dimethylphenyl)pentyl]benzyl}amino)propyl]phosphonic acid] | 8.51 |
| Cc1ccc(CC(CCCCc2ccc(CNCCCP(=O)(O)O)cc2)c2cc(F)cc(F)c2)cc1C (stereo not drawn) [[3-({4-[5-(3,5-Difluorophenyl)-6-(3,4-dimethylphenyl)hexyl]benzyl}amino)propyl]phosphonic acid] | 8.29 |
